Laboratory results reported in patent US8748398B2, “Stroke-targeting peptide and use thereof” (Kyungpook National University Industry-Academic Cooperation …, priority 2008, dated 2014).
Where no end group is shown, it is not given here.

Assays:
[1] = test system: ipsilateral (ischemic) hemisphere of a brain; test: In vivo screening of phage-displayed CX7C peptide library, frequency of selected clones; details: 30 phage clones randomly selected in second and third rounds, rat with occluded MCA
ischemic stroke tissue [2] = test: Autoradiogram of absorption of 131I-labeled peptide in ischemic stroke tissue; format: in vivo, rat
ischemic stroke tissue [3] = test: In vivo targeting of fluorescein-labeled peptide, fluorescence microscopy of frozen sections with TTC and TUNEL staining; set-up: species or system rat; details: for targeting to the contralateral tissue / targeting to the ipsilateral tissue: fluorescein peptide into left ventricle 24 hours after ischemic injury
[4] = test system: β-tubulin-positive neuron cell and GFAP-positive astrocyte in the ischemic brain tissue; test: Immunofluorescence staining for the type of cells bound to the peptide (anti-tubulin, anti-GFAP); format: in vivo, rat; details: 24 hours after ischemic injury
[5] = tail vein 24 hours after ischemic injury, 1-hour circulation

CTKRNAPDC (Stroke-targeting peptide 4)
Frequency (%) [1]: (10%)
Frequency (clones with the sequence / clones sequenced) [1]: 3/30

CRSAVAKNC (Stroke-targeting peptide 3)
Frequency (%) [1]: (17%)
Frequency (clones with the sequence / clones sequenced) [1]: 5/30

^131I-CLEVSRKNC peptide: CLEVSRKNC peptide (SEQ ID NO: 1) labeled with radioisotope 131I (cysteine pairing not given here; also: 131I radiolabel)
absorption in a general brain of a control group rat (ischemic stroke tissue [2]; 1-hour circulation): insufficient
absorption rate by optically stimulated luminescence (ischemic stroke tissue [2]; 4 coronal sections, third day vs first and seventh day, P<0.01): very high absorption rate on the third day
time course of absorption in ischemic tissue after ischemic injury (ischemic stroke tissue [2]; first, third and seventh day after ischemic injury): reached a peak on the third day
absorption in the contralateral region (ischemic stroke tissue [2]; [5]): insufficient
absorption in the ipsilateral hemisphere (ischemic stroke tissue [2]; [5]): observed in the ipsilateral hemisphere

CNSREVLKC [CNSREVLKC peptide, reference compound]
targeting to the contralateral tissue (ischemic stroke tissue [3]; 15-minute circulation): not observed
targeting to the ipsilateral tissue (ischemic stroke tissue [3]; 15-minute circulation): not observed

CLEVSRKNC (Stroke-targeting peptide 1)
Frequency (%) [1]: (30%)
Frequency (clones with the sequence / clones sequenced) [1]: 9/30
targeting to the ischemic hemisphere (ischemic stroke tissue [3]; 2-hour circulation (data not noted)): targeted to the ischemic hemisphere
targeting to control group organs (spleen, liver, lung) (ischemic stroke tissue [3]; 15-minute circulation): little
region of the stroke tissue where targeting was observed (ischemic stroke tissue [3]; 15-minute circulation, TTC staining): observed in a penumbra
binding to TUNEL-stained apoptotic cells in the penumbra (ischemic stroke tissue [3]; TUNEL staining of frozen sections): most of the apoptotic cells stained with TUNEL, except for some of them, were bound
targeting to the contralateral tissue (ischemic stroke tissue [3]; 15-minute circulation): not targeted to the contralateral tissue
targeting to the ipsilateral tissue (ischemic stroke tissue [3]; 15-minute circulation): targeted to the ipsilateral tissue
co-localisation with GFAP-positive astrocyte in the ischemic brain tissue [4]: did not correspond
co-localisation with β-tubulin-positive neuron cell in the ischemic brain tissue [4]: corresponded to the position of β-tubulin-positive neuron cell
targeting in a neuron cell and an astrocyte in the contralateral brain tissue [4]: not observed

CKRGGATAC (Stroke-targeting peptide 2)
Frequency (%) [1]: (23%)
Frequency (clones with the sequence / clones sequenced) [1]: 7/30
